Source: ChEMBL document CHEMBL1909294, “Translating clinical findings into knowledge in drug safety evaluation--drug induced liver injury prediction system (DILIps)” (PLoS Comput Biol, 2011)

Tests used:
Hepatotoxicity [1] = system: Hepatotoxicity;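 on HepSE bilirubinemia: bilirubinemia hepatic side effect score drawn from the DILIps training data, a prediction system for drug-induced liver injury; call rule not given here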;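 on HepSE cirrhosis: cirrhosis hepatic side effect score taken from the DILIps (drug-induced liver injury prediction) training set; call rule not given here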;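 on HepSE elevated liver function tests: hepatic side effect score for raised liver function tests, as recorded in the DILIps training set used for predicting drug-induced liver injury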;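 on HepSE jaundice: Jaundice-related hepatic side-effect score drawn from the training data of the DILIps (drug-induced liver injury prediction system); call rule not given here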; on HepSE liver disease: call rule not given here;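 on HepSE liver fatty: hepatic side effect score for fatty liver, taken from the DILIps training set for predicting drug-induced liver injury; call rule not given here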;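 on HepSE liver function tests abnormal: hepatic side effect score taken from the DILIps (drug-induced liver injury prediction system) training data, here covering abnormal liver function test findings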
Hepatotoxicity [2] = system: Hepatotoxicity; remark: listed apart in the source;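 on HepSE bilirubinemia: bilirubinemia hepatic side effect score drawn from the DILIps training data, a prediction system for drug-induced liver injury; call rule not given here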;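 on HepSE cirrhosis: cirrhosis hepatic side effect score taken from the DILIps (drug-induced liver injury prediction) training set; call rule not given here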;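 on HepSE elevated liver function tests: hepatic side effect score for raised liver function tests, as recorded in the DILIps training set used for predicting drug-induced liver injury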;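 on HepSE jaundice: Jaundice-related hepatic side-effect score drawn from the training data of the DILIps (drug-induced liver injury prediction system); call rule not given here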; on HepSE liver disease: call rule not given here;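 on HepSE liver fatty: hepatic side effect score for fatty liver, taken from the DILIps training set for predicting drug-induced liver injury; call rule not given here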;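 on HepSE liver function tests abnormal: hepatic side effect score taken from the DILIps (drug-induced liver injury prediction system) training data, here covering abnormal liver function test findings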
Hepatotoxicity [3] = system: Hepatotoxicity; remark: listed apart in the source;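 on HepSE bilirubinemia: bilirubinemia hepatic side effect score drawn from the DILIps training data, a prediction system for drug-induced liver injury; call rule not given here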;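 on HepSE cirrhosis: cirrhosis hepatic side effect score taken from the DILIps (drug-induced liver injury prediction) training set; call rule not given here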;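 on HepSE elevated liver function tests: hepatic side effect score for raised liver function tests, as recorded in the DILIps training set used for predicting drug-induced liver injury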;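 on HepSE jaundice: Jaundice-related hepatic side-effect score drawn from the training data of the DILIps (drug-induced liver injury prediction system); call rule not given here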; on HepSE liver disease: call rule not given here;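 on HepSE liver fatty: hepatic side effect score for fatty liver, taken from the DILIps training set for predicting drug-induced liver injury; call rule not given here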
Hepatotoxicity [4] = system: Hepatotoxicity; remark: listed apart in the source;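 on HepSE bilirubinemia: bilirubinemia hepatic side effect score drawn from the DILIps training data, a prediction system for drug-induced liver injury; call rule not given here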;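 on HepSE cirrhosis: cirrhosis hepatic side effect score taken from the DILIps (drug-induced liver injury prediction) training set; call rule not given here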;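 on HepSE elevated liver function tests: hepatic side effect score for raised liver function tests, as recorded in the DILIps training set used for predicting drug-induced liver injury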;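 on HepSE jaundice: Jaundice-related hepatic side-effect score drawn from the training data of the DILIps (drug-induced liver injury prediction system); call rule not given here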; on HepSE liver disease: call rule not given here;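 on HepSE liver fatty: hepatic side effect score for fatty liver, taken from the DILIps training set for predicting drug-induced liver injury; call rule not given here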
Hepatotoxicity [5] = system: Hepatotoxicity; remark: listed apart in the source; on HepSE liver disease: call rule not given here
Hepatotoxicity [6] = system: Hepatotoxicity; remark: listed apart in the source; on HepSE liver disease: call rule not given here
Hepatotoxicity [7] = system: Hepatotoxicity; remark: listed apart in the source
Hepatotoxicity [8] = system: Hepatotoxicity; remark: listed apart in the source
Hepatotoxicity [9] = system: Hepatotoxicity; remark: listed apart in the source
Hepatotoxicity [10] = system: Hepatotoxicity; remark: listed apart in the source
Hepatotoxicity [11] = system: Hepatotoxicity; remark: listed apart in the source
Hepatotoxicity [12] = system: Hepatotoxicity; remark: listed apart in the source
Hepatotoxicity [13] = system: Hepatotoxicity; remark: listed apart in the source
Hepatotoxicity [14] = system: Hepatotoxicity; remark: listed apart in the source

SMILES | HepSE_bilirubinemia (Hepatotoxicity [1]) | HepSE_liver disease (Hepatotoxicity [2]) | HepSE_jaundice (Hepatotoxicity [3]) | HepSE_liver fatty (Hepatotoxicity [4]) | HepSE_hepatitis (Hepatotoxicity [5]) | HepSE_cirrhosis (Hepatotoxicity [6]) | HepSE_elevated liver function tests (Hepatotoxicity [7]) | HepSE_cholelithiasis (Hepatotoxicity [8]) | HepSE_liver function tests abnormal (Hepatotoxicity [9]) | HepSE_hepatic necrosis (Hepatotoxicity [10]) | HepSE_cholecystitis (Hepatotoxicity [11]) | HepSE_Combined Scores (Hepatotoxicity [12]) | HepSE_hepatomegaly (Hepatotoxicity [13]) | HepSE_hepatic failure (Hepatotoxicity [14])
CC(C)Cn1cnc2c(N)nc3ccccc3c21 [IMIQUIMOD] | 0 | 0 | 0 | 0 | 0 | 0 | 0 | 0 | 0 | 0 | 0 | 0 | 0 | 0
C#CC1(O)CCC2C3CCC4=CC(=O)CCC4C3C(=C)CC21CC (configuration not stated) [IMPLANON] | 0 | 0 | 0 | 0 | 0 | 0 | 0 | 0 | 0 | 0 | 0 | 0 | 0 | 0
Nc1cc(-c2ccncc2)c[nH]c1=O [INAMRINONE] | 0 | 0 | 1 | 0 | 0 | 0 | 0 | 0 | 0 | 0 | 0 | 1 | 0 | 0
CC1Cc2ccccc2N1NC(=O)c1ccc(Cl)c(S(N)(=O)=O)c1 (configuration not stated) [INDAPAMIDE] | 0 | 0 | 1 | 0 | 1 | 0 | 0 | 0 | 1 | 0 | 0 | 3 | 0 | 0
COc1ccc2c(c1)c(CC(=O)O)c(C)n2C(=O)c1ccc(Cl)cc1 [INDOMETHACIN] | 0 | 0 | 1 | 0 | 0 | 0 | 0 | 0 | 0 | 0 | 0 | 1 | 0 | 0
II [IODINE] | 0 | 0 | 0 | 0 | 1 | 0 | 0 | 0 | 0 | 0 | 0 | 1 | 0 | 0
O=C(CCCCC(=O)Nc1c(I)cc(I)c(C(=O)O)c1I)Nc1c(I)cc(I)c(C(=O)O)c1I [IODIPAMIDE] | 0 | 0 | 0 | 0 | 0 | 0 | 0 | 0 | 0 | 0 | 0 | 0 | 0 | 0
CC(=O)N(CC(O)CN(C(C)=O)c1c(I)c(C(=O)NCC(O)CO)c(I)c(C(=O)NCC(O)CO)c1I)c1c(I)c(C(=O)NCC(O)CO)c(I)c(C(=O)NCC(O)CO)c1I (configuration not stated) [IODIXANOL] | 0 | 0 | 0 | 0 | 0 | 0 | 0 | 0 | 0 | 0 | 0 | 0 | 0 | 0
CC(=O)N(CC(O)CO)c1c(I)c(C(=O)NCC(O)CO)c(I)c(C(=O)NCC(O)CO)c1I (configuration not stated) [IOHEXOL] | 0 | 0 | 0 | 0 | 0 | 0 | 0 | 0 | 0 | 0 | 0 | 0 | 0 | 0
C[C@H](O)C(=O)Nc1c(I)c(C(=O)NC(CO)CO)c(I)c(C(=O)NC(CO)CO)c1I [IOPAMIDOL] | 0 | 0 | 0 | 0 | 0 | 0 | 0 | 0 | 0 | 0 | 0 | 0 | 0 | 0
COCC(=O)Nc1c(I)c(C(=O)NCC(O)CO)c(I)c(C(=O)N(C)CC(O)CO)c1I (configuration not stated) [IOPROMIDE] | 0 | 0 | 0 | 0 | 0 | 0 | 0 | 0 | 0 | 0 | 0 | 0 | 0 | 0
CNC(=O)c1c(I)c(NC(C)=O)c(I)c(C(=O)[O-])c1I.[Na+] [IOTHALAMATE SODIUM] | 0 | 0 | 0 | 0 | 0 | 0 | 0 | 0 | 0 | 0 | 0 | 0 | 0 | 0
CNC(=O)c1c(I)c(NC(C)=O)c(I)c(C(=O)O)c1I [IOTHALAMIC ACID] | 0 | 0 | 0 | 0 | 0 | 0 | 0 | 0 | 0 | 0 | 0 | 0 | 0 | 0
